From PubChem BioAssay AID1919002 (Molecular Pharmacology Branch, DTP, NCI, 2023)

Test system: 743489-274-T-PDC complex spheroid growth
Assay: Anticancer human tumor 743489-274-T-PDC patient-derived renal cell carcinoma cell line growth inhibition [AhR]
Conditions: for IC50: curve of first compound; for viability, T/C: stronger effect = lower value
Procedure, shortened: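 Complex tumor spheroids co-cultured with HUVEC and human MSC stroma; AhR antagonists tested in combination with standard-of-care and investigational agents. Top concentration at or near clinical Cmax (else 10 microM), half-log dilutions; growth expressed as percent test/control.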

[1] = second compound 0.1 µM, first compound 0.0316 µM
[2] = second compound 0.1 µM, first compound 0.1 µM
[3] = second compound 0.316 µM, first compound 0.0316 µM
[4] = second compound 0.316 µM, first compound 0.1 µM
[5] = second compound 1 µM, first compound 0.0316 µM
[6] = second compound 1 µM, first compound 0.1 µM
[7] = second compound 3.16 µM, first compound 0.0316 µM
[8] = second compound 3.16 µM, first compound 0.1 µM
[9] = second compound 10 µM, first compound 0.0316 µM
[10] = second compound 10 µM, first compound 0.1 µM
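Also: spheroids exposed to agents for 7 days before readout.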
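For viability, T/C in this document: 100% = DMSO vehicle control wells.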

With `CC[C@@]1(O)C(=O)OCc2c1cc1n(c2=O)Cc2cc3c(CN(C)C)c(O)ccc3nc2-1` + Cc1cncc(-c2nc(NCCc3c[nH]c4ccccc34)c3ncn(C(C)C)c3n2)c1 the IC50 (second compound 0.1 µM) was > 0.1 µM, the IC50 (second compound 0.316 µM) was > 0.1 µM and the IC50 (second compound 1 µM) was > 0.1 µM. For the same molecule, the IC50 (second compound 3.16 µM) was > 0.1 µM, the IC50 (second compound 10 µM) was > 0.1 µM and the viability, T/C (second compound 0.1 µM, first compound 0.000316 µM) was 100%. It also gave a viability, T/C (second compound 0.1 µM, first compound 0.001 µM) of 108%, a viability, T/C (second compound 0.1 µM, first compound 0.00316 µM) of 98.7% and a viability, T/C (second compound 0.1 µM, first compound 0.01 µM) of 94.5%. The viability, T/C [1] was 93.1%, the viability, T/C [2] was 97.4% and the viability, T/C (second compound 0.316 µM, first compound 0.000316 µM) was 105%. For the same molecule, the viability, T/C (second compound 0.316 µM, first compound 0.001 µM) was 110%, the viability, T/C (second compound 0.316 µM, first compound 0.00316 µM) was 105% and the viability, T/C (second compound 0.316 µM, first compound 0.01 µM) was 98.6%. It also gave a viability, T/C [3] of 92.8%, a viability, T/C [4] of 90.4% and a viability, T/C (second compound 1 µM, first compound 0.000316 µM) of 101%. The viability, T/C (second compound 1 µM, first compound 0.001 µM) was 105%, the viability, T/C (second compound 1 µM, first compound 0.00316 µM) was 101% and the viability, T/C (second compound 1 µM, first compound 0.01 µM) was 89.8%. The viability, T/C [5] was 86.5%, the viability, T/C [6] was 84.3% and the viability, T/C (second compound 3.16 µM, first compound 0.000316 µM) was 113%. It also gave a viability, T/C (second compound 3.16 µM, first compound 0.001 µM) of 109%, a viability, T/C (second compound 3.16 µM, first compound 0.00316 µM) of 129% and a viability, T/C (second compound 3.16 µM, first compound 0.01 µM) of 101%. For the same molecule, the viability, T/C [7] was 107%, the viability, T/C [8] was 84.7% and the viability, T/C (second compound 10 µM, first compound 0.000316 µM) was 136%. It also gave a viability, T/C (second compound 10 µM, first compound 0.001 µM) of 123%, a viability, T/C (second compound 10 µM, first compound 0.00316 µM) of 133% and a viability, T/C (second compound 10 µM, first compound 0.01 µM) of 123%. For the same molecule, the viability, T/C [9] was 123% and the viability, T/C [10] was 114%.

`COc1cc(C2c3cc4c(cc3C(OC3OC5COC(C)OC5C(O)C3O)C3COC(=O)C23)OCO4)cc(OC)c1O` (stereo not given) + Cc1cncc(-c2nc(NCCc3c[nH]c4ccccc34)c3ncn(C(C)C)c3n2)c1 was tested, and the IC50 (second compound 0.1 µM) was > 10 µM, the IC50 (second compound 0.316 µM) was > 10 µM and the IC50 (second compound 1 µM) was > 10 µM. For the same molecule, the IC50 (second compound 3.16 µM) was > 10 µM, the IC50 (second compound 10 µM) was > 10 µM and the viability, T/C [1] was 97.7%. It also gave a viability, T/C [2] of 88.2%, a viability, T/C (second compound 0.1 µM, first compound 0.316 µM) of 88% and a viability, T/C (second compound 0.1 µM, first compound 1 µM) of 96.8%. For the same molecule, the viability, T/C (second compound 0.1 µM, first compound 3.16 µM) was 82.3%, the viability, T/C (second compound 0.1 µM, first compound 10 µM) was 74.6% and the viability, T/C [3] was 94.1%. The viability, T/C [4] was 82.6%, the viability, T/C (second compound 0.316 µM, first compound 0.316 µM) was 78.2% and the viability, T/C (second compound 0.316 µM, first compound 1 µM) was 80%. For the same molecule, the viability, T/C (second compound 0.316 µM, first compound 3.16 µM) was 75.2%, the viability, T/C (second compound 0.316 µM, first compound 10 µM) was 78.5% and the viability, T/C [5] was 90.2%. For the same molecule, the viability, T/C [6] was 87.6%, the viability, T/C (second compound 1 µM, first compound 0.316 µM) was 80.5% and the viability, T/C (second compound 1 µM, first compound 1 µM) was 78.1%. The viability, T/C (second compound 1 µM, first compound 3.16 µM) was 80.4%, the viability, T/C (second compound 1 µM, first compound 10 µM) was 80.8% and the viability, T/C [7] was 95.3%. The viability, T/C [8] was 87.9%, the viability, T/C (second compound 3.16 µM, first compound 0.316 µM) was 91.4% and the viability, T/C (second compound 3.16 µM, first compound 1 µM) was 92.6%. The viability, T/C (second compound 3.16 µM, first compound 3.16 µM) was 80.1%, the viability, T/C (second compound 3.16 µM, first compound 10 µM) was 74.8% and the viability, T/C [9] was 131%. The viability, T/C [10] was 117%, the viability, T/C (second compound 10 µM, first compound 0.316 µM) was 95.6% and the viability, T/C (second compound 10 µM, first compound 1 µM) was 110%. For the same molecule, the viability, T/C (second compound 10 µM, first compound 3.16 µM) was 102% and the viability, T/C (second compound 10 µM, first compound 10 µM) was 100%.
